pIC50: −log10 of the molar value.
Key:
[1] = target: T1, Histone-lysine N-methyltransferase SMYD3 (Homo sapiens, UniProt Q9H7B4); test: Inhibition of full length N-terminal His-tagged SMYD3 (1 to 428 residues) (unknown origin) expressed in Escherichia coli using N-terminal GST-tagged MEKK2 as substrate preincubated for 30 mins followed by substrate addition by scintillation proximity assay in presence of [3H]SAM
T1 sequence (Q9H7B4 whole entry): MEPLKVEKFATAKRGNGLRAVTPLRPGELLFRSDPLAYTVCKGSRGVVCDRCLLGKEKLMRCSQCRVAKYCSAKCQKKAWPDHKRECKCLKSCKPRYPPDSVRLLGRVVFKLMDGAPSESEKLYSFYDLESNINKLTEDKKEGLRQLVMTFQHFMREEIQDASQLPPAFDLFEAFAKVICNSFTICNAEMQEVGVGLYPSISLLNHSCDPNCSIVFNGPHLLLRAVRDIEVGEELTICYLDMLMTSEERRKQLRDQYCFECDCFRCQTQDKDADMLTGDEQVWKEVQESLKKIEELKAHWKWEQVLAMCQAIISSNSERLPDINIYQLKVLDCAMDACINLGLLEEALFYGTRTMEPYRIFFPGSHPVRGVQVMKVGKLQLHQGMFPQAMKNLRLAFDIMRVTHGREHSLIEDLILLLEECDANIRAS

[2] = target: T1, Histone-lysine N-methyltransferase SMYD3; test: Inhibition of human SMYD3 expressed in HEK293T/17 cells using FLAG-tagged MEKK2 as substrate incubated for 30 mins in low air flow area followed by incubation for 24 hrs at 37 degC by Western blot analysis; format: cell-based, HEK-293T

Compound | pIC50 [1] | pIC50 [2]
NC1CCN(S(=O)(=O)N2[C@@H]3CC[C@H]2C[C@@H](NC(=O)c2ccc4c(c2)CC(=O)N4)C3)CC1 | 9.00 | –
O=C1Cc2cc(C(=O)N[C@H]3C[C@H]4CC[C@@H](C3)N4S(=O)(=O)C[C@H]3CCCNC3)c(Cl)cc2N1 | 8.40 | 5.89
O=C1Cc2cc(C(=O)N[C@H]3C[C@H]4CC[C@@H](C3)N4S(=O)(=O)CC3CCN(CCCO)CC3)c(Cl)cc2N1 | 8.70 | –
N[C@H]1CC[C@H](S(=O)(=O)N2[C@@H]3CC[C@H]2C[C@@H](NC(=O)c2ccc4c(c2)CC(=O)N4)C3)CC1 | 8.40 | 5.66
NC1CCN(S(=O)(=O)N2[C@@H]3CC[C@H]2C[C@@H](NC(=O)c2cc4c(cc2Cl)NC(=O)C4)C3)CC1 | 9.00 | 5.96
NCCCS(=O)(=O)N1CCC(NC(=O)c2ccc3c(c2)CC(=O)N3)CC1 | – | < 5.00
O=C1Cc2cc(C(=O)N[C@H]3C[C@H]4CC[C@@H](C3)N4S(=O)(=O)CC3CCNCC3)c(Cl)cc2N1 | 8.40 | 5.49
CNC1CCN(S(=O)(=O)N2[C@@H]3CC[C@H]2C[C@@H](NC(=O)c2cc4c(cc2Cl)NC(=O)C4)C3)CC1 | 8.70 | –
O=C1Cc2cc(C(=O)NC3CCN(S(=O)(=O)CC4CCNCC4)CC3)ccc2N1 | 7.15 | < 5.00
Cc1cc2c(cc1C(=O)N[C@H]1C[C@H]3CC[C@@H](C1)N3S(=O)(=O)N1CCC(N)CC1)CC(=O)N2 | – | 6.39
CN1CCC(CS(=O)(=O)N2[C@@H]3CC[C@H]2C[C@@H](NC(=O)c2ccc4c(c2)CC(=O)N4)C3)CC1 | 9.00 | –
NCCCS(=O)(=O)N1CCC(NC(=O)c2cc3c(cc2Cl)NC(=O)C3)CC1 | 7.10 | –
CN(C)C1CCN(S(=O)(=O)N2[C@@H]3CC[C@H]2C[C@@H](NC(=O)c2cc4c(cc2Cl)NC(=O)C4)C3)CC1 | 8.52 | –
NC1CCN(S(=O)(=O)N2[C@@H]3CC[C@H]2C[C@@H](NC(=O)c2cc4c(cc2F)NC(=O)C4)C3)CC1 | 8.30 | –

Reference: ChEMBL document CHEMBL3797202, “Novel Oxindole Sulfonamides and Sulfamides: EPZ031686, the First Orally Bioavailable Small Molecule SMYD3 Inhibitor” (ACS Med Chem Lett, 2016)
